Biological target: His-tagged CRBN-DDB1 complex (Homo sapiens (Human), UniProt Q96SW2)
Experiment: Time-resolved fluorescence resonance energy transfer (TR-FRET) assay, displacement of Cy5-labeled thalidomide
Format: binding
Conditions: read-out: CRBN HTRF IC50
Protocol: Equal volumes of His-tagged CRBN-DDB1 complex (56 nM) was mixed with Eu-cryptate labeled Anti-6HIS-monoclonal antibody (50× dilution from the commercial stock solution, Vender: Cisbio, Cat. #61HI2KLA) in a final buffer containing 20 mM HEPES pH 7.0, 150 mM NaCl, 0.005% Tween-20. […] The mixture were incubated at room temperature for 1 hour. FRET signals were measured on an EnVision plate reader (Perkin Elmer) by exciting at 340 nm and recording emission at both 615 nm as no FRET control and 665 nm as the FRET signals with a 60 microsecond delay. FRET efficiency was calculated as the ratio of fluorescent signals at […]. Quantitative loss of FRET efficiency as a function of compound concentrations was fitted by a four-parameter Logistic Function using GraphPad Prism 7.0 and the IC50 values were reported for each compound.
The compound numbers correspond to the compound numbers in Table 1.

His-tagged CRBN-DDB1 complex, sequence (Q96SW2 whole entry): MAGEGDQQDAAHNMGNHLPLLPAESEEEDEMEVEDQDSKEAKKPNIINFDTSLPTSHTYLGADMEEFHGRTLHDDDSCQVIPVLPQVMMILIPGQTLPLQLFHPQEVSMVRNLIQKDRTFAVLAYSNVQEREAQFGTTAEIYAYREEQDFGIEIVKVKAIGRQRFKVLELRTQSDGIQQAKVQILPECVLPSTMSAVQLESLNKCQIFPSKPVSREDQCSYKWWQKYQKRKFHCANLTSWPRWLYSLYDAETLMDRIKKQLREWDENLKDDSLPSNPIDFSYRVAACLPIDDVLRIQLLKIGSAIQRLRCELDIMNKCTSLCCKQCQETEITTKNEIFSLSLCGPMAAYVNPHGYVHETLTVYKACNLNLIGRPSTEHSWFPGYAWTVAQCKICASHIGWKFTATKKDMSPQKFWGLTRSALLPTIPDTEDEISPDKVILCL
His-tagged CRBN-DDB1 complex, sequence (Q16531 whole entry partner): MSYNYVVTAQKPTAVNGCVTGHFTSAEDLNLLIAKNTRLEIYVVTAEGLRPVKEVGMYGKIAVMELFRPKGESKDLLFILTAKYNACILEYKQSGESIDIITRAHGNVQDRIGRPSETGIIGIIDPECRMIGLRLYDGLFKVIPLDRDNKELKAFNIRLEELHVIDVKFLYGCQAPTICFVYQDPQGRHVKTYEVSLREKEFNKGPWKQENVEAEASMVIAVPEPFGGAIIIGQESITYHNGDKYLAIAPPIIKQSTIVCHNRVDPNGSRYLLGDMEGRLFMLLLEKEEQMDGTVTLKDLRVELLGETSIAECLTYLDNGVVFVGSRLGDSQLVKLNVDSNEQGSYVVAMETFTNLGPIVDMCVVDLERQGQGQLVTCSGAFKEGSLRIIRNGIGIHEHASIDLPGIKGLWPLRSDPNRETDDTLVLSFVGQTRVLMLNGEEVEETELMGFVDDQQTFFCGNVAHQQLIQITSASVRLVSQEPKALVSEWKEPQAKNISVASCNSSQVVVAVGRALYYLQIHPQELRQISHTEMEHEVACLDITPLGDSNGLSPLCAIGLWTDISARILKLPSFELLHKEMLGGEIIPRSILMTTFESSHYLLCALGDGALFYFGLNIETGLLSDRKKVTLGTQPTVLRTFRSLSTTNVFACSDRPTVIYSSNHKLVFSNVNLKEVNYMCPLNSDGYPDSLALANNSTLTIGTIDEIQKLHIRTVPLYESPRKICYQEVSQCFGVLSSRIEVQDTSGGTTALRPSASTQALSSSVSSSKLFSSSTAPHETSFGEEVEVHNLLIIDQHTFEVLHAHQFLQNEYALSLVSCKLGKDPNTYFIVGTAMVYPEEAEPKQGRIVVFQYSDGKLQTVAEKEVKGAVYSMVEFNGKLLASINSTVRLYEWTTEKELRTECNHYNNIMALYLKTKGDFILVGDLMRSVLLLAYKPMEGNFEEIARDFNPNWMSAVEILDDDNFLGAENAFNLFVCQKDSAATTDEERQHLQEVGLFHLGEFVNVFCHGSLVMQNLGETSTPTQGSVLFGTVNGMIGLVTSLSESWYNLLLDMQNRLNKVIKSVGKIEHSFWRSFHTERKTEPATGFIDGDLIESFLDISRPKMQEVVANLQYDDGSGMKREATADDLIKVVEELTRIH

SMILES | IC50
CC(C)(C)OC(=O)NCCOCCOCC(=O)NCc1ccc2c(c1)c1cccnc1n2C1CCC(=O)NC1=O (stereo not shown) [I-36, tert-butyl (2-(2-(2-(((9-(2,6-dioxopiperidin-3-yl)-9H-pyrido[2,3-b]indol-6-yl)methyl)amino)-2-oxoethoxy)ethoxy)ethyl)carbamate] | < 10 µM
CC(C)(C)OC(=O)NCCOCC#Cc1ccc2c(c1)c1cccnc1n2C1CCC(=O)NC1=O (stereo not shown) [I-33, tert-Butyl (2-((3-(9-(2,6-dioxopiperidin-3-yl)-9H-pyrido[2,3-b]indol-6-yl)prop-2-yn-1-yl)oxy)ethyl)carbamate] | < 10 µM
O=C1CCC(n2c3cnccc3c3cccnc32)C(=O)N1 (stereo not shown) [I-69, 3-(9H-pyrrolo[2,3-b:5,4-c′]dipyridin-9-yl)piperidine-2,6-dione] | > 100 µM
O=C1CCC(n2c3ccc(NCCOCCOCCOCc4ccccc4)cc3c3cccnc32)C(=O)N1 (stereo not shown) [I-50] | < 10 µM
CC(C)(C)OC(=O)NCCOCCOCCCc1ccc2c3ccccc3n(C3CCC(=O)NC3=O)c2n1 (stereo not shown) [I-73] | 10 to 30 µM
O=C1CCC(n2c3ccccc3c3ccc(C(F)(F)F)nc32)C(=O)N1 (stereo not shown) [I-85] | 10 to 30 µM
CN(CCCOCC#Cc1ccc2c(c1)c1cccnc1n2C1CCC(=O)NC1=O)C(=O)OC(C)(C)C (stereo not shown) [I-45] | 10 to 30 µM
CC(C)(C)OC(=O)NCCOCCOCCCc1ccnc2c1c1ccccc1n2C1CCC(=O)NC1=O (stereo not shown) [I-57] | < 10 µM
O=C1CCC(n2c3ccccc3c3cncnc32)C(=O)N1 (stereo not shown) [I-67] | 10 to 30 µM
COc1ccc2c3ccccc3n(C3CCC(=O)NC3=O)c2n1 (stereo not shown) [I-82] | 10 to 30 µM
O=C1CCC(n2c3ccccc3n3ccnc23)C(=O)N1 (stereo not shown) [I-99] | 30 to 100 µM
O=C1CCC(n2c3ccc(Br)cc3c3cccnc32)C(=O)N1 (stereo not shown) [I-26, 3-(6-Bromo-9H-pyrido[2,3-b]indol-9-yl)piperidine-2,6-dione] | < 10 µM
CCNC(=O)Nc1ccc2c(c1)c1cccnc1n2C1CCC(=O)NC1=O (stereo not shown) [I-9, 1-(9-(2,6-Dioxopiperidin-3-yl)-9H-pyrido[2,3-b]indol-6-yl)-3-ethylurea] | < 10 µM
O=C1CCC(n2c3ccccc3c3ccnc(O)c32)C(=O)N1 (stereo not shown) [I-105] | 10 to 30 µM
Cc1ccc2c3ccccc3n(C3CCC(=O)NC3=O)c2n1 (stereo not shown) [I-86, 3-(2-methyl-9H-pyrido[2,3-b]indol-9-yl)piperidine-2,6-dione] | < 10 µM
O=C1CCC(n2c3cccc(CCCOCCOCCO)c3c3cccnc32)C(=O)N1 (stereo not shown) [I-51] | < 10 µM
O=C1CCC(n2c3cccc(Br)c3c3cccnc32)C(=O)N1 (stereo not shown) [I-30] | < 10 µM
O=C1CCC(n2c3ccc(Br)cc3c3ccc(F)nc32)C(=O)N1 (stereo not shown) [I-92, 3-(6-bromo-2-fluoro-9H-pyrido[2,3-b]indol-9-yl)piperidine-2,6-dione] | < 10 µM
O=C1CCC(n2c3cccc(F)c3c3cccnc32)C(=O)N1 (stereo not shown) [I-100] | < 10 µM
O=C1CCC(n2c3ccccc3c3c(C#CCOCCOCCOCc4ccccc4)ccnc32)C(=O)N1 (stereo not shown) [I-49] | < 10 µM
CC(C)(C)OC(=O)NCCOCCOCCCc1cccc2c1c1cccnc1n2C1CCC(=O)NC1=O (stereo not shown) [I-60] | < 10 µM
O=C1CCC(n2c3ncccc3c3cccnc32)C(=O)N1 (stereo not shown) [I-3, 3-(9H-pyrrolo[2,3-b:5,4-b′]dipyridin-9-yl)piperidine-2,6-dione] | 30 to 100 µM
CN(C)c1ccc2c(c1)c1cccnc1n2C1CCC(=O)NC1=O (stereo not shown) [I-28, 3-(6-(Dimethylamino)-9H-pyrido[2,3-b]indol-9-yl)piperidine-2,6-dione] | < 10 µM
O=C1CCC(n2c3ccc(C#CCOCCOCCOCc4ccccc4)cc3c3cccnc32)C(=O)N1 (stereo not shown) [I-47] | < 10 µM
NCCOCCOCCCc1cnc2c(c1)c1ccccc1n2C1CCC(=O)NC1=O (stereo not shown) [I-59, 3-(3-(3-(2-(2-aminoethoxy)ethoxy)propyl)-9H-pyrido[2,3-b]indol-9-yl)piperidine-2,6-dione] | < 10 µM

Source: patent publication US11292792B2, “Tricyclic CRBN ligands and uses thereof” (Kymera Therapeutics, Inc., priority 2018, dated 2022)
